Laboratory results taken from patent publication US20070191402A1, “Method of searching substrate having antidiabetic activity” (KYOWA HAKKO KOGYO CO., LTD., priority 2002, published 2007).

Target: T1, p31 protein (Mus musculus, UniProt Q99LB2)
T1 construct: endogenous in cells; host or cells: MIN6 (murine pancreatic beta cell line), digitonin-solubilized membrane fraction
T1 sequence (Q99LB2 20-279 limits assumed): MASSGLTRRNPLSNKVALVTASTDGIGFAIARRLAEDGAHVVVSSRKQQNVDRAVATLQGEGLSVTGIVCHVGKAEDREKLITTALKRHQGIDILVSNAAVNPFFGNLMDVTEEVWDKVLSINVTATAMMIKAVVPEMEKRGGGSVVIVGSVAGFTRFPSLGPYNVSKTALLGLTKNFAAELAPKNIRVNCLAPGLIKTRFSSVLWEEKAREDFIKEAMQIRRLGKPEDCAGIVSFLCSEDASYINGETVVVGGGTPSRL
Assay: Inhibition of binding of p31 protein from MIN6 solubilized membrane fraction to Compound 155-immobilized particle (SDS-PAGE)
Conditions: 500 μmol/l tested substance, band on SDS-PAGE
Experimental: The solubilized membrane fraction of MIN6 as prepared in Example 12 was 10-fold diluted with the buffer B. The compound represented by Compound No. 16 (hereinafter referred to as “Compound 16”) at 500 μmol/l was added to 1 ml of the resulting dilution and gently stirred at 4° C. for 2 hours. As a control, the solubilized membrane fraction of MIN6 without addition of the Compound 16 was 10-fold diluted with buffer C [20 mmol/l HEPES, pH 7.4, 2 mmol/l EDTA, 150 mmol/l NaCl, 1% digitonin, 1 mmol/l PMSF, 1 μg/ml aprotinin], and 1 ml of the resulting dilution was gently stirred at 4° C. for 2 hours. Then, a particle immobilizing a compound represented by Compound No. 155 (hereinafter referred to as “Compound 155-immobilized particle”) as prepared in Example 8 was added to the solubilized membrane fraction solution with addition of the Compound 16 and the solubilized membrane fraction solution without addition of any tested substance and gently stirred at 4° C. for 30 minutes. Subsequently, the resulting solutions were centrifuged (12,000 rpm, one minute, 4° C.) to precipitate the particle to thereby remove the supernatants. Then, 750 μl of the buffer C was added and stirred for 3 seconds, followed by centrifugation (12,000 rpm, one minute, 4° C.), to precipitate the particle to remove the supernatant. Then, 750 μl of buffer D [20 mmol/l HEPES, pH 7.4, 2 mmol/l EDTA] was added and stirred for 3 seconds, followed by centrifugation (12,000 rpm, one minute, 4° C.), to precipitate the particle to remove the supernatant. Subsequently, 30 μl of an SDS-polyacrylamide gel electrophoresis sample buffer containing β-mercaptoethanol was added to solubilize the protein binding to Compound 155-immobilized particle, followed by SDS-polyacrylamide gel electrophoresis. Through the purification from the cell extract solution by adding Compound 16 via Compound 155-immobilized particle, p31 protein in which its specific binding to Compound 155-immobilized particle was inhibited by the compound represented by Compound No. 16 was found. […]

inhibition of the binding of the p31 protein to the Compound 155-immobilized particle: inhibits the binding of the p31 protein | inhibition of the binding of the p31 protein to the Compound 155-immobilized particle (listed as Compound No. 16): inhibited
Structure (SMILES): CCCN1C(=O)N2C[C@@H](Cc3ccccc3)N=C2c2[nH]c(C3CCCC3)nc21 [compound 16]
